Source: patent US20130116251A1, “Novel HSP90 Inhibitor” (Nippon Kayaku Kabushiki Kaisha, priority 2005, published 2013)
Structures can show the parent of a compound that is named as a salt.

Key:
rHSP90 = assay: HSP90 binding assay (BIACORE SPR; inhibition of binding between rHSP90 and fixed herbimycin A); details: concentration inhibiting binding between rHSP90 (50 μg/mL) and fixed herbimycin A by 50%, BIACORE-X SPR; read-out: HSP90 inhibitory activity IC50
Description: The HSP90 binding assay system is a system for detecting the change of mass as SPR signal caused by the binding between herbimycin A fixed on a sensor chip and rHSP90 by BIACORE-X, in which 17-(6-amino hexylamino)herbimycin A is fixed through a carboxyl group on the surface of the sensor chip (CM5, BIACORE) on which carboxymethyldextran has been introduced. The method was according to the protocol of BIACORE. In addition, 17-(6-aminohexylamino)herbimycin A was synthesizes as described below.
rHSP90 (Stressgen Biotechnologies Corp., Victoria, BC Canada) at 50 μg/mL was exposed for 10 seconds to the surface of the sensor chip on which herbimycin A was fixed and the SPR signal (numerical value of interaction) was detected.
After mixing rHSP90 protein (5×10^−7M (50 μg/mL)) with the triazole derivative of the present invention, the mixture was exposed for 10 seconds to the surface of the sensor chip on which herbimycin A was fixed, and the SPR signal was measured by BIACORE-X.
Next, using following formula (1), the inhibitory activity (binding inhibition rate (%)) of the compound of the present invention to the binding between rHSP90 and fixed herbimycin A was obtained.
binding inhibition rate(%)=((b−s)/b)×100 Formula (1)
wherein b is the SPR signal when the compound of the present invention is not added to the sample: s is the SPR signal when the compound of the present invention is added to the sample.

[1] = system: Human breast cancer cells (MCF7); assay: Antiproliferative activity on MCF7 cells (methylene blue method); format: cell-based; details: Homo sapiens, MCF7, 72 h, MCF7 cells, 72 hours treatment, 660 nm absorbance after methylene blue staining; read-out: Antiproliferative activity IC50
Description: Human breast cancer cells (MCF7) were treated with samples of various concentrations of known HSP90 inhibitors (that is, geldanamycin, herbimycin, radicicol and PU3) and the compounds of the present invention for 72 hours to confirm the effect of the triazole derivatives of the present invention on the cell growth. The cell ratio after the drug treatment was evaluated by measuring 660 nm absorbance by a microplate reader (BioRad) after staining the cells with the methylene blue method.
Cells were distributed to wells of 96 well plates at 2000 cells per well and treated with drugs 24 hours later. Further, the medium was removed 72 hours later and the cells were fixed by adding 50 μl of methanol and standing at room temperature for 2 minutes. After removing methanol, 100 μl of a staining solution was added and stained for 30 minutes. After washing 3 times with 200 μl of distilled water, 3% HCl solution was added, and the 660 nm absorbance of methylene blue was measured by a microplate reader (BioRad).
Next, the antiproliferative activity rate (%) was obtained by the formula (2) below.
Antiproliferative activity rate(%)=((B−A)/B)×100 Formula (2)
wherein B is 660 nm absorbance of the sample when the compound of the present invention is not added, and A is 660 nm absorbance of the sample when the compound of the present invention is added.
From the concentration of the triazole derivative of the present invention and the antiproliferative activity rate, the concentration was obtained using the above formula, at which the cell growth was suppressed by 50% by comparing with the control, and termed an IC50 value.
The antiproliferative activity rate (%) was obtained for SH-b04, SH-b05 and SH-b06 described above by a similar manner to that of the triazole derivatives of the present invention.

[2] = system: HSP90 client protein ERα in MCF7 cells; assay: Measurement test for amount of HSP90 client protein ERα (Western blotting); format: cell-based; details: MCF7 cells treated 16 hours at 3-5 concentrations
Description: (§1) MCF7 cells (American Type Culture Collection, Rockville, Md.) were treated with the compounds of the present invention at various concentrations for 16 hours to confirm that the HSP90 inhibitors of the present invention induce a depression of intracellular concentration of the client protein or target polypeptide that bind to HSP90. The amount of the HSP90 client protein Her2 and ERα was evaluated by the Western blotting method.
(§2) One million cells were seeded in a 6 cm dish, and 24 hours later the compounds of the present invention (Example 1-2, Example 2-1, Example 2-13, Example 2-2, Example 3-4, Example 2-5, Example 3-16, Example 3-6, Example 2-7, Example 3-27, Example 2-10 and Example 3-18) were added. Cells treated with the compounds were washed, mixed with 150 μl of lysis buffer (RIPA, 150 mM NaCl, 1% NP40, 0.1% deoxycholate (sodium salt), 0.1% SDS, 1 mM EDTA, 10 mM Tris-HCl (pH 8.0)) and incubated at 4° C. for 30 minutes. The cell lysates were centrifuged (15,000 rpm, 20 minutes) and protein (20 μg) of the supernatant was subjected to SDS polyacrylamide gel electrophoresis (SDS-PAGE). After finishing the electrophoresis, proteins in the gel were transferred to a PVDF membrane. The membrane after the transfer was treated with a primary antibody against the HSP90 client protein (anti Her2 or anti ERa antibody, both from Santa Cruz Biotechnology, Santa Cruz, Calif.), then treated with secondary antibodies (anti-rabbit Ig, horse radish peroxidase conjugated F(ab′)2 fragment (derived from donkey): Amersham Biosciences, UK Limited, Buckinghamhshire, UK.) and then the amount of the client protein was detected as the intensity of chemiluminescence signal with a chemiluminescence reagent (ECL: Amersham Biosciences UK Limited, Buckinghamshire, UK).

[3] = system: HSP90 client protein Her2 in MCF7 cells; assay: Measurement test for amount of HSP90 client protein Her2 (Western blotting); format: cell-based; details: MCF7 cells treated 16 hours at 3-5 concentrations
Description: as §1, §2

Human lung cancer H460 = assay: Antitumor effect on nude mice transplanted with human lung cancer H460; format: in vivo; details: tail vein, starting day = 1.0
Description: Antitumor Effect on Nude Mice Transplanted with Human Lung Cancer
Human lung cancer H460 tumor fragment, which had been passaged subcutaneously in nude mice, was made into about 3 mm fragment and transplanted subcutaneously to the back of nude mice using a trocar. When the tumor volume grew to about 50 mm^3 or above, the compound of the present invention was administered to the tail vein once a day for 5 or 7 days every day. The compound of the present invention was dissolved in DMSO, mixed with TWEEN 80, and then diluted with a 5% glucose injection solution and used. The vehicle of the compound was administered to the control group of OH-a01. The control groups in other experiments were not treated. The tumor volume was measured on the first administration day and on the evaluation day (7 or 8 days after the start of the administration), and the relative tumor volume of the evaluation day was obtained from the tumor volume on the first administration day. Further, the tumor volume was calculated by measuring the major axis (Lmm) and minor axis (Wmm) of the tumor and by the formula (L×W^2)/2.
Relative tumor volume represents the average relative tumor volume on day 7 after the start of the administration, assuming the tumor volume of the starting day is 1.0.
Relative tumor volume represents the average relative tumor volume on day 8 after the start of the administration, assuming the tumor volume of the starting day is 1.0.

[4] = Table 10, 100 mg/kg/day, 5 days continuous, day 8, control group 6.5 ± 2.0

COc1ccc(-n2c(-c3cc(C(C)C)c(O)cc3O)nnc2S(=O)(=O)CCCN(C)C)cc1 (as salt: hydrochloride) [SFN2-a08, 4-[5-(3-dimethylamino-propane-1-sulfonyl)-4-(4-methoxy-phenyl)-4H-[1,2,4]triazol-3-yl]-6-isopropyl-benzene-1,3-diol]
melting point: 233 °C (dec.)

COc1ccc(-n2c(NS(C)(=O)=O)nnc2-c2cc(C(C)C)c(O)cc2O)cc1 [Example N1-a08, N-[5-(2,4-dihydroxy-5-isopropyl-phenyl)-4-(4-methoxy-phenyl)-4H-[1,2,4]triazol-3-yl]-methanesulfonamide]
IC50 (rHSP90): 290 nM
IC50 [1]: 180 nM
amount of HSP90 client protein ERα [2]: depression
amount of HSP90 client protein Her2 [3]: depression

CC(C)c1cc(-c2n[nH]c(=O)n2-c2ccc(N3CCOCC3)cc2)c(O)cc1O [OH-a01, 4-{5-hydroxy-4-[4-(morpholin-4-yl)-phenyl]-4H-[1,2,4]triazol-3-yl}-6-isopropyl-benzene-1,3-diol]
IC50 (rHSP90): 140 nM
IC50 [1]: 4.9 nM
amount of HSP90 client protein ERα [2]: depression
Relative tumor volume (Average ± SD) (Human lung cancer H460; Table 8, 3.8 mg/kg/day, 7 days continuous, day 7, control group 7.3 ± 1.7): 3.3 ± 0.7
Relative tumor volume (Average ± SD) (Human lung cancer H460; Table 8, 7.5 mg/kg/day, 7 days continuous, day 7, control group 7.3 ± 1.7): 1.7 ± 0.5
amount of HSP90 client protein Her2 [3]: depression

CC(C)c1cc(-c2n[nH]c(=O)n2-c2ccc(CN3CCOCC3)cc2)c(O)cc1O [OH-a02, 4-{5-hydroxy-4-[4-(morpholin-4-ylmethyl)-phenyl]-4H-[1,2,4]triazol-3-yl}-6-isopropyl-benzene-1,3-diol]
IC50 (rHSP90): 180 nM
IC50 [1]: 16 nM
amount of HSP90 client protein ERα [2]: depression
Relative tumor volume (Average ± SD) (Human lung cancer H460; Table 9, 75 mg/kg/day, 5 days continuous, day 8, control group 4.6 ± 3.1): 3.5 ± 2.3
Relative tumor volume (Average ± SD) (Human lung cancer H460; Table 9, 150 mg/kg/day, 5 days continuous, day 8, control group 4.6 ± 3.1): 2.1 ± 0.1
amount of HSP90 client protein Her2 [3]: depression

CC(C)c1cc(-c2n[nH]c(=O)n2-c2ccc(O)cc2)c(O)cc1O [OH-a11, 5-(2,4-dihydroxy-5-isopropylphenyl)-4-(4-hydroxyphenyl)-4H-[1,2,4]triazol-3-one]
IC50 (rHSP90): 220 nM
IC50 [1]: 77 nM
amount of HSP90 client protein ERα [2]: depression
amount of HSP90 client protein Her2 [3]: depression

CC(C)c1cc(-c2n[nH]c(=O)n2-c2ccc(CN3CCN(C)CC3)cc2)c(O)cc1O [OH-a13, 5-(2,4-dihydroxy-5-isopropylphenyl)-4-[4-(4-methylpiperazin-1-ylmethyl)phenyl]-2,4-dihydro-[1,2,4]triazol-3-one]
IC50 (rHSP90): 250 nM
IC50 [1]: 71 nM
amount of HSP90 client protein ERα [2]: depression
Relative tumor volume (Average ± SD) (Human lung cancer H460; Table 10, 50 mg/kg/day, 5 days continuous, day 8, control group 6.5 ± 2.0): 1.4 ± 0.5
Relative tumor volume (Average ± SD) (Human lung cancer H460; [4]): 1.1 ± 0.3
amount of HSP90 client protein Her2 [3]: depression

CC(C)c1cc(-c2n[nH]c(=O)n2C(C)C)c(O)cc1O [OH-a21, 5-(2,4-dihydroxy-5-isopropyl-phenyl)-4-isopropyl-2,4-dihydro-[1,2,4]triazol-3-one]
IC50 (rHSP90): 130 nM
IC50 [1]: 38 nM
amount of HSP90 client protein ERα [2]: depression
melting point: 261 to 262 °C (dec.)
amount of HSP90 client protein Her2 [3]: depression

COc1ccc(-n2c(-c3cc(C(C)C)c(O)cc3O)nnc2S(=O)(=O)CCCN(C)C)cc1 [SFN2-a08, 4-[5-(3-dimethylamino-propane-1-sulfonyl)-4-(4-methoxy-phenyl)-4H-[1,2,4]triazol-3-yl]-6-isopropyl-benzene-1,3-diol]
IC50 (rHSP90): 700 nM
IC50 [1]: 69 nM
amount of HSP90 client protein ERα [2]: depression
amount of HSP90 client protein Her2 [3]: depression

COc1ccc(-n2c(-c3cc(C(C)C)c(O)cc3O)nnc2S(=O)(=O)CCCN2CCCCC2)cc1 [SFN3-a08, 4-isopropyl-6-[4-(4-methoxy-phenyl)-5-(3-piperidin-1-yl-propane-1-sulfonyl)-4H-[1,2,4]triazol-3-yl]-benzene-1,3-diol]
IC50 (rHSP90): 590 nM
IC50 [1]: 44 nM
amount of HSP90 client protein ERα [2]: depression
Relative tumor volume (Average ± SD) (Human lung cancer H460; [4]): 5.4 ± 1.3
Relative tumor volume (Average ± SD) (Human lung cancer H460; Table 10, 150 mg/kg/day, 5 days continuous, day 8, control group 6.5 ± 2.0): 2.9 ± 0.6
amount of HSP90 client protein Her2 [3]: depression

CC(C)c1cc(-c2nnc(S(C)(=O)=O)n2-c2ccc(CN3CCOCC3)cc2)c(O)cc1O [SFN-a02, 4-isopropyl-6-{5-methanesulfonyl-4-[4-(morpholin-4-ylmethyl)-phenyl]-4H-[1,2,4]triazol-3-yl}-benzene-1,3-diol]
IC50 (rHSP90): 120 nM
IC50 [1]: 150 nM
amount of HSP90 client protein ERα [2]: depression
amount of HSP90 client protein Her2 [3]: depression

COc1ccc(-n2c(-c3cc(C(C)C)c(O)cc3O)nnc2S(C)(=O)=O)cc1 [SFN-a08, 4-isopropyl-6-[5-methanesulfonyl-4-(4-methoxy-phenyl)-4H-[1,2,4]triazol-3-yl]-benzene-1,3-diol]
IC50 (rHSP90): 94 nM
IC50 [1]: 270 nM
amount of HSP90 client protein ERα [2]: depression
amount of HSP90 client protein Her2 [3]: depression

CC(C)c1cc(-c2n[nH]c(=S)n2-c2ccc(CN3CCOCC3)cc2)c(O)cc1O [SH-a02, 4-isopropyl-6-{5-mercapto-4-[4-(morpholin-4-ylmethyl)-phenyl]-4H-[1,2,4]triazol-3-yl}-benzene-1,3-diol]
IC50 (rHSP90): 240 nM
IC50 [1]: 36 nM
amount of HSP90 client protein ERα [2]: depression
amount of HSP90 client protein Her2 [3]: depression
